Assay [1] addresses Phosphatidylinositol 3-kinase C2 domain-containing subunit gamma (Homo sapiens) (UniProt O75747). Briefly: Binding affinity to wild-type human partial length PIK3C2G (M1 to I1446 residues) expressed in mammalian expression system assessed as residual binding level at 10 uM by Kinomescan method relative to control.
Assay [2] concerns the target Calcium/calmodulin-dependent protein kinase type 1D (Homo sapiens) (UniProt Q8IU85). Description: Binding affinity to wild-type human partial length CAMK1D (M1 to K299 residues) expressed in bacterial expression system assessed as residual binding level at 10 uM by Kinomescan method relative to control.
Assay [3] addresses Serine/threonine-protein kinase DCLK2 (Homo sapiens) (UniProt Q8N568). Briefly: Binding affinity to wild-type human partial length DCAMKL2 (K273 to V664 residues) expressed in bacterial expression system assessed as residual binding level at 10 uM by Kinomescan method relative to control.
Assay [4] relates to Receptor-type tyrosine-protein kinase FLT3 (Homo sapiens), P36888 [K663Q]. Briefly: Binding affinity to human partial length FLT3 K663Q mutant (V592 to Y969 residues) expressed in bacterial expression system assessed as residual binding level at 10 uM by Kinomescan method relative to control.
Assay [5] deals with Ribosomal protein S6 kinase alpha-2 (Homo sapiens) (UniProt Q15349). Briefly: Binding affinity to wild-type human partial length N- terminal RSK3 kinase domain 1 (M1 to Q385 residues) expressed in bacterial expression system assessed as residual binding level at 10 uM by Kinomescan method relative to control.
Chain of Ribosomal protein S6 kinase alpha-2 (Homo sapiens) (Q15349 whole entry, the tested form may be a part): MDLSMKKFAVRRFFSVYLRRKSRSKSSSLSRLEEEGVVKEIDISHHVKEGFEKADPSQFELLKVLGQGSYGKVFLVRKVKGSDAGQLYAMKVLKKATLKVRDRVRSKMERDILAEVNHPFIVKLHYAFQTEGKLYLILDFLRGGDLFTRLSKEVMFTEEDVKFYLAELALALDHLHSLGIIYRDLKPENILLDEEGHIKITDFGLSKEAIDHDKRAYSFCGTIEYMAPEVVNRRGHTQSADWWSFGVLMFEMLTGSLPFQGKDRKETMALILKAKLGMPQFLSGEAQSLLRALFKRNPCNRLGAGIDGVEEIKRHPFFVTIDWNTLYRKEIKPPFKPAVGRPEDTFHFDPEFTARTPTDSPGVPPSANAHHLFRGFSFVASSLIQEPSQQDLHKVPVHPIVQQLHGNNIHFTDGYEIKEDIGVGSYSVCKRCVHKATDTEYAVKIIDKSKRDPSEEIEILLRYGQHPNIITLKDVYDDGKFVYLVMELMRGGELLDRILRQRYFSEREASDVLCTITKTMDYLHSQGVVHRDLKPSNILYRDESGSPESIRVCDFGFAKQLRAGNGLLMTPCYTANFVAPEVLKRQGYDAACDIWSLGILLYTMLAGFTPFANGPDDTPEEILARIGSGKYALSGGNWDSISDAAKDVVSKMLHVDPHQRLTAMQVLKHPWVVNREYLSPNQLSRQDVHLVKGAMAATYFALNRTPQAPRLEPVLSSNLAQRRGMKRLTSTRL
Assay [6] addresses Serine/threonine-protein kinase WNK1 (Homo sapiens) (UniProt Q9H4A3). Briefly: Binding affinity to wild-type human partial length WNK1 (Q194 to A490 residues) expressed in mammalian expression system assessed as residual binding level at 10 uM by Kinomescan method relative to control.
For assay [7], the target named is Epidermal growth factor receptor (Homo sapiens) (UniProt P00533). Description: Binding affinity to wild-type human partial length EGFR (R669 to V1011 residues) expressed in bacterial expression system assessed as residual binding level at 10 uM by Kinomescan method relative to control.
Chain of Epidermal growth factor receptor (Homo sapiens) (P00533 whole entry, the tested form may be a part, canonical isoform): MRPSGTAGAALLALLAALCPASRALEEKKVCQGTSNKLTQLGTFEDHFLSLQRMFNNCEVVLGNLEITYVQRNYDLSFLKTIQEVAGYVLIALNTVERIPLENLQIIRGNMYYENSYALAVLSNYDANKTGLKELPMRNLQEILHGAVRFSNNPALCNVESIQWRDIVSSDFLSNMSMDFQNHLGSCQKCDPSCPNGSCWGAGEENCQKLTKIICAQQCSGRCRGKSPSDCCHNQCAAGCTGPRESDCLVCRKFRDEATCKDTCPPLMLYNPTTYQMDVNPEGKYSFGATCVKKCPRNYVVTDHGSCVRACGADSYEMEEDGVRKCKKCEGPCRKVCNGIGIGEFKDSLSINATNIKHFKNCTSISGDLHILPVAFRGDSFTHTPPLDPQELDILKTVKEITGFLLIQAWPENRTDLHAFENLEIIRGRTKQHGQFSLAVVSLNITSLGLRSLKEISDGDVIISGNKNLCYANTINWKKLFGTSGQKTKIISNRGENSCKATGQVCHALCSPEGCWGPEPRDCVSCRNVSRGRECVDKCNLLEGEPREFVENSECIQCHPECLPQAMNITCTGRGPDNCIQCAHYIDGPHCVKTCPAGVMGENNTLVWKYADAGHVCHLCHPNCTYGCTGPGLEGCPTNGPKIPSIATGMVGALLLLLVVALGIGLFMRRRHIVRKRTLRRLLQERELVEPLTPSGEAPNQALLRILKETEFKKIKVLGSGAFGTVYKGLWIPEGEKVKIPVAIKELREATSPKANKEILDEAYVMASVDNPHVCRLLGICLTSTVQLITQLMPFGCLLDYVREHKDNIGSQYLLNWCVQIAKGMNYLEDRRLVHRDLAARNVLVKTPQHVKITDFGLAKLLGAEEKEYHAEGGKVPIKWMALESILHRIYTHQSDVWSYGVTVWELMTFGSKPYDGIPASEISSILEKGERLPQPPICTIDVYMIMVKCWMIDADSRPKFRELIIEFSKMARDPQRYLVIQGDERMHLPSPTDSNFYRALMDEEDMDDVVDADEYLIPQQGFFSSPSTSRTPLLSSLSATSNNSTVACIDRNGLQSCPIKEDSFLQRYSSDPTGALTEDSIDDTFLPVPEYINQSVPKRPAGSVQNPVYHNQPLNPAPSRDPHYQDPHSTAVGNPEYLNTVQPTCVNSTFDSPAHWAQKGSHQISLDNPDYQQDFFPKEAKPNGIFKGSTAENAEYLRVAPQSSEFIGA
Assay [8] has as its target Phosphatidylinositol 4,5-bisphosphate 3-kinase catalytic subunit alpha isoform (Homo sapiens) (UniProt P42336). Description: Binding affinity to wild-type human partial length PIK3CA (R108 to N1068 residues) expressed in mammalian expression system assessed as residual binding level at 10 uM by Kinomescan method relative to control.

Chain of Phosphatidylinositol 3-kinase C2 domain-containing subunit gamma (Homo sapiens) (O75747 whole entry, the tested form may be a part): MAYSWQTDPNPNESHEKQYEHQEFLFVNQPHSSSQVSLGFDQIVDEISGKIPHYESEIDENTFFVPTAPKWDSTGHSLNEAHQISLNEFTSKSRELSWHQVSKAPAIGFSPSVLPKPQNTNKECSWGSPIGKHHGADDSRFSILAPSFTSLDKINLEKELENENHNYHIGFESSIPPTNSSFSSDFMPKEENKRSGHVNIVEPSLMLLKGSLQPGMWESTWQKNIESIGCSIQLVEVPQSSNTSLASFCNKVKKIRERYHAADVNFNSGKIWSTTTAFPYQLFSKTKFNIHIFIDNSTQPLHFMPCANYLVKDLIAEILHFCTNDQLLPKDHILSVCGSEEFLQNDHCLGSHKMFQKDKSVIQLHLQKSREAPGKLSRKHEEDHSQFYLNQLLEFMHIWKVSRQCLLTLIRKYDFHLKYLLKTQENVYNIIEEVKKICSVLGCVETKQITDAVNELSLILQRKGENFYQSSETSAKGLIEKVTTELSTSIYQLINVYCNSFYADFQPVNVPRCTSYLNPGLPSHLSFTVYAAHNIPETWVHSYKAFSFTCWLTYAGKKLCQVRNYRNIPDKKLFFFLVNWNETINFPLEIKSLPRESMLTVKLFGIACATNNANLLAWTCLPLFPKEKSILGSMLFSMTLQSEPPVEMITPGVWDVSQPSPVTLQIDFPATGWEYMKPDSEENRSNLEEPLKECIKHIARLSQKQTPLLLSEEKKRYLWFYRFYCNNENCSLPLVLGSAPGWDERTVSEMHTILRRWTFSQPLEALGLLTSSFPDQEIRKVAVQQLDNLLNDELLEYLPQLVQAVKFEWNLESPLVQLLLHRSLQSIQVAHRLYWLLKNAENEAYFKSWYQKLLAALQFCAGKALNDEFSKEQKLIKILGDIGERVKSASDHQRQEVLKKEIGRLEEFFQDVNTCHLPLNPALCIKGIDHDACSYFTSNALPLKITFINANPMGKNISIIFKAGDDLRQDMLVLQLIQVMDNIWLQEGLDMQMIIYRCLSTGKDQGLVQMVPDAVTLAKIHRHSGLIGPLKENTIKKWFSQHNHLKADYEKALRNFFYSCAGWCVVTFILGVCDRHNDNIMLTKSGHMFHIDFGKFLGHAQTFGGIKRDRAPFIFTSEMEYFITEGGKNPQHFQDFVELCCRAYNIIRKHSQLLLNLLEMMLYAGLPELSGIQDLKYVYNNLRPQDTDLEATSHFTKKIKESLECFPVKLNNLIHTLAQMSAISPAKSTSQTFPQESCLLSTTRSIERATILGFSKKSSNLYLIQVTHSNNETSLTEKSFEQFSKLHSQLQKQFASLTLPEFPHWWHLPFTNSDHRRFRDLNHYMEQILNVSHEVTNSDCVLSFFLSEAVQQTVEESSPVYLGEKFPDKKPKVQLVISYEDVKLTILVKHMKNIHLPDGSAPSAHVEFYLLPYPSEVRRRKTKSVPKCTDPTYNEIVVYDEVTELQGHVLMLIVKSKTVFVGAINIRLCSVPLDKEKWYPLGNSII
Chain of Phosphatidylinositol 4,5-bisphosphate 3-kinase catalytic subunit alpha isoform (Homo sapiens) (P42336 whole entry, the tested form may be a part, canonical isoform): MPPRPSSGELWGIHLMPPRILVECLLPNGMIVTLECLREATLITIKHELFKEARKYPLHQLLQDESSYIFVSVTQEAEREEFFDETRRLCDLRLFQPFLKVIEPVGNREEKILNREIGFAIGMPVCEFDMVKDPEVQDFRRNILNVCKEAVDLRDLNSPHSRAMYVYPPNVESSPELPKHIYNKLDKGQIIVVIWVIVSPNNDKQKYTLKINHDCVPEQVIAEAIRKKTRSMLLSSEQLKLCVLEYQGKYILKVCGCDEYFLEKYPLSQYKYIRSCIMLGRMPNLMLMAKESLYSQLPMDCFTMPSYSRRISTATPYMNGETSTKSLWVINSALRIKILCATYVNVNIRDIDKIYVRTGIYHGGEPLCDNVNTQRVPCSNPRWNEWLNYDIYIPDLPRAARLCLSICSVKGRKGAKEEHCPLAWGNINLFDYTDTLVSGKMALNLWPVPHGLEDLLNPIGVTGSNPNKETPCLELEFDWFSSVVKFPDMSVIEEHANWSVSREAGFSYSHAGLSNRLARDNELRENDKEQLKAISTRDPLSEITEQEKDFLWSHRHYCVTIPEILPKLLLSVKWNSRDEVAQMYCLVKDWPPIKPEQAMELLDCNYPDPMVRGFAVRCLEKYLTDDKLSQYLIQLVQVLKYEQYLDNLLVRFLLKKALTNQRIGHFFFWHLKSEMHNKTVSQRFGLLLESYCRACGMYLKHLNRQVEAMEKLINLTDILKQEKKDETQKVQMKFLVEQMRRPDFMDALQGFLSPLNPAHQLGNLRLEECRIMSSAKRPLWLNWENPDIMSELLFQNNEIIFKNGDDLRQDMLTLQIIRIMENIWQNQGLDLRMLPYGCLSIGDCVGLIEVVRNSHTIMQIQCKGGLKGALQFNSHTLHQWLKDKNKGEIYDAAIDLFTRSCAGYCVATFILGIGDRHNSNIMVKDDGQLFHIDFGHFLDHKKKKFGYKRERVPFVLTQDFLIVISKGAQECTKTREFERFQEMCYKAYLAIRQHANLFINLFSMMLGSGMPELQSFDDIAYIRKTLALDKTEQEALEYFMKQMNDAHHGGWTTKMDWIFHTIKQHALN
Chain of Calcium/calmodulin-dependent protein kinase type 1D (Homo sapiens) (Q8IU85 whole entry, looked up, the tested form may be a part): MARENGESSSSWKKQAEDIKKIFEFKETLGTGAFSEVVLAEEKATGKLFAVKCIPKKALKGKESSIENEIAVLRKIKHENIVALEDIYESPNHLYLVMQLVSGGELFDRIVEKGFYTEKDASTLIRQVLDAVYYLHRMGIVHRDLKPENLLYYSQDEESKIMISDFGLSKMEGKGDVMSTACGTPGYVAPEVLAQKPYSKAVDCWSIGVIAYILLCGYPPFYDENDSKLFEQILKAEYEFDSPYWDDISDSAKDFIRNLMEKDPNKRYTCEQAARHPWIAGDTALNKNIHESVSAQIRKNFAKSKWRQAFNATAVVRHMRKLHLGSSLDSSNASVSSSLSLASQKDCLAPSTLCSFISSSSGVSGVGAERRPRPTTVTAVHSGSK

For `CC(C)N1C(=O)C(NCCCN(C)C)=C(c2cn(C)c3ccccc23)C1=O.Cl`, the Activity in assay [1] is 84%; in assay [2] it was 83%; in assay [3], 94%; in assay [4], 97%; in assay [5] it was 100%; in assay [6], 68%. In addition, the Activity in assay [7] was 89%; in assay [8] it was 76%.

(Values after ChEMBL document CHEMBL4304811, “Development of a Water-Soluble Indolylmaleimide Derivative IM-93 Showing Dual Inhibition of Ferroptosis and NETosis” (ACS Med Chem Lett, 2019).)
